Reference: patent US8592379B2, “Metastin derivative and use thereof” (Kyoto University, priority 2008, dated 2013)
Like-named read-outs stand apart in the source and are kept apart here.

How the values were obtained:
GPR54 [1] = target: T1, GPR54 (Homo sapiens (Human), UniProt Q969F8); experiment: Flipr assay of GPR54 agonist activity (increase in intracellular Ca2+ ion concentration); type: cell-based; details: for % Activity / activity at 0.01 µM: signal upon addition of 10 nM compound, based on signal of 1 μM kisspeptin-10 as 100%
T1 sequence (Q969F8 whole entry): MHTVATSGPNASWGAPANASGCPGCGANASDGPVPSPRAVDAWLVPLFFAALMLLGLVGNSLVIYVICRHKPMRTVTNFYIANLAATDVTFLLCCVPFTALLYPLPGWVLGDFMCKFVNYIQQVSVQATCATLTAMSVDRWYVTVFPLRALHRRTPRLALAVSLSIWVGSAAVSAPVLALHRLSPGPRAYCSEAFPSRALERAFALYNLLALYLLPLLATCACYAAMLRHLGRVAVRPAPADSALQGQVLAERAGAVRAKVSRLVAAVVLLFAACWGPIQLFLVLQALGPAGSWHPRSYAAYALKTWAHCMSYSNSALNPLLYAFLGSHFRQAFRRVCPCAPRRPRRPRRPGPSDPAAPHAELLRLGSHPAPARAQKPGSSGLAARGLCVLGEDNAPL
Description: The GPR54 agonist activity of the obtained compounds was evaluated by Flipr assay measuring increase in the intracellular Ca^2+ ion concentration caused by stimulation of receptor as a signal.

[2] = Half-life of the compound in the serum; details: for t1/2: in the serum; for half-life: serum, t1/2, in the serum
Description: (§2) In addition, the half-life (t1/2) of the compound in the serum was measured.

MMP2 = MMP2 (Homo sapiens (Human), UniProt P08253); experiment: Resistance to decomposition by matrix protease MMP2; type: in vitro ADME; details: for retention after treatment with MMP2: 48 hr, in words
Text: (§1) Furthermore, the resistance of the present invention to the decomposition by matrix protease (MMP) was examined. […] However, only about 50% of compound 1 was retained.

MMP9 = MMP9 (Homo sapiens (Human), UniProt P14780); experiment: Resistance to decomposition by matrix protease MMP9; type: in vitro ADME; details: for retention after treatment with MMP9: 72 hr, in words
Text: as §1

[3] = serum
Description: as §2

GPR54 [4] = target: T1, GPR54; experiment: Binding inhibitory test using membrane fraction of human GPR54-expressing cell and [125I]-Metastin 40-54
Description: A binding inhibitory test using membrane fraction of human GPR54-expressing cell and [^125I]-Metastin 40-54 was performed, and IC50 value was calculated (see non-patent document 2).

SMILES	% Activity (GPR54 [1]) [%]	t1/2 [2] [h]	activity at 0.01 µM (GPR54 [1]) [%]	half-life [2] [h]	further results
CC(C)C[C@H](NC(=O)CNC(=O)[C@H](Cc1ccccc1)NC(=O)c1ccc(F)cc1)C(=O)N[C@@H](CCCN=C(N)N)C(=O)N[C@@H](Cc1c[nH]c2ccccc12)C(N)=O [Compound 1, reference compound]			94.7		t1/2 [3]: 6.6 h; remaining at 72 h (MMP9; isolated matrix protease MMP9, read-out: amount retained after treatment with MMP9): ~50%
CC(C)C[C@H](/C=C/CNC(=O)[C@H](Cc1ccccc1)NC(=O)c1ccc(F)cc1)C(=O)N[C@@H](CCCN=C(N)N)C(=O)N[C@@H](Cc1c[nH]c2ccccc12)C(N)=O [Compound 19]			97.6	38	retention after treatment with MMP2 (MMP2): retained even after 48 hr with scarce decomposition; retention after treatment with MMP9 (MMP9): retained even after 72 hr with scarce decomposition
CC(C)C[C@H](CCCNC(=O)[C@H](Cc1ccccc1)NC(=O)c1ccc(F)cc1)C(=O)N[C@@H](CCCNC(=N)N)C(=O)N[C@@H](Cc1c[nH]c2ccccc12)C(N)=O [Compound 20]			70.3	45	
CC(C)C/C(=C\CCNC(=O)[C@H](Cc1ccccc1)NC(=O)c1ccc(F)cc1)C(=O)N[C@@H](CCCNC(=N)N)C(=O)N[C@@H](Cc1c[nH]c2ccccc12)C(N)=O [Compound 21]			49.3	52	
CC(C)C/C(=C\[C@@H](O)CNC(=O)[C@H](Cc1ccccc1)NC(=O)c1ccc(F)cc1)C(=O)N[C@@H](CCCNC(=N)N)C(=O)N[C@@H](Cc1c[nH]c2ccccc12)C(N)=O [Compound 22]			18.7	60	
CC(C)C/C(=C\[C@H](O)CNC(=O)[C@H](Cc1ccccc1)NC(=O)c1ccc(F)cc1)C(=O)N[C@@H](CCCN=C(N)N)C(=O)N[C@@H](Cc1c[nH]c2ccccc12)C(N)=O [Compound 23]			0.7	1100	retention after treatment with MMP9 (MMP9): retained even after 72 hr with scarce decomposition
CC(C)C[C@H](NC(=O)CNC(=O)[C@H](Cc1ccccc1)NC(=O)[C@H](CO)NC(=O)[C@H](CC(N)=O)NC(=O)[C@H](Cc1c[nH]c2ccccc12)NC(=O)[C@H](CC(N)=O)NC(=O)[C@@H](N)Cc1ccc(O)cc1)C(=O)N[C@@H](CCCNC(=N)N)C(=O)N[C@@H](Cc1ccccc1)C(N)=O [Kisspeptin-10, reference compound]					QIC (GPR54 [4]; IC50 of compound divided by IC50 of kisspeptin-10): 1; IC50 (GPR54 [4]; [125I]-Metastin 40-54 as labeled ligand, membrane fraction): 0.07 to 0.12 nM; remaining at 48 h (MMP2; isolated matrix protease MMP2, read-out: amount retained after treatment with MMP2): ~65%; QEC (GPR54 [1]; EC50 of compound divided by EC50 of kisspeptin-10): 1

Continued, in another order:

% Activity (GPR54 [1]) [%]	t1/2 [2] [h]	activity at 0.01 µM (GPR54 [1]) [%]	half-life [2] [h]	SMILES	further results
0.6	470			CC(C)CC(C[C@@H](O)CNC(=O)[C@H](Cc1ccccc1)NC(=O)c1ccc(F)cc1)C(=O)N[C@@H](CCCNC(=N)N)C(=O)N[C@@H](Cc1c[nH]c2ccccc12)C(N)=O (single isomer, unassigned) [Compound 24a]	
53.9	54			CC(C)CC(C[C@@H](O)CNC(=O)[C@H](Cc1ccccc1)NC(=O)c1ccc(F)cc1)C(=O)N[C@@H](CCCNC(=N)N)C(=O)N[C@@H](Cc1c[nH]c2ccccc12)C(N)=O (single isomer, unassigned) [Compound 24b]	
13.8	120			CC(C)CC(C[C@H](O)CNC(=O)[C@H](Cc1ccccc1)NC(=O)c1ccc(F)cc1)C(=O)N[C@@H](CCCNC(=N)N)C(=O)N[C@@H](Cc1c[nH]c2ccccc12)C(N)=O (single isomer, unassigned) [Compound 25a]	
95.6	35			CC(C)CC(C[C@H](O)CNC(=O)[C@H](Cc1ccccc1)NC(=O)c1ccc(F)cc1)C(=O)N[C@@H](CCCNC(=N)N)C(=O)N[C@@H](Cc1c[nH]c2ccccc12)C(N)=O (single isomer, unassigned) [Compound 25b]	retention after treatment with MMP2 (MMP2): retained even after 48 hr with scarce decomposition; retention after treatment with MMP9 (MMP9): retained even after 72 hr with scarce decomposition
